ChEMBL document CHEMBL1143261, “Enantioselective actions of 4-amino-3-hydroxybutanoic acid and (3-amino-2-hydroxypropyl)methylphosphinic acid at recombinant GABA(C) receptors” (Bioorg Med Chem Lett, 2008)

The molecules below were run against T1, Gamma-aminobutyric acid receptor subunit rho-1 (Homo sapiens, UniProt P24046) (assay: Agonist activity at human recombinant GABAc rho1 receptor expressed in Xenopus laevis oocytes at -60mV by two-electrode voltage clamp method).
Format: functional, cell-based, Oocyte

T1 sequence (P24046 whole entry): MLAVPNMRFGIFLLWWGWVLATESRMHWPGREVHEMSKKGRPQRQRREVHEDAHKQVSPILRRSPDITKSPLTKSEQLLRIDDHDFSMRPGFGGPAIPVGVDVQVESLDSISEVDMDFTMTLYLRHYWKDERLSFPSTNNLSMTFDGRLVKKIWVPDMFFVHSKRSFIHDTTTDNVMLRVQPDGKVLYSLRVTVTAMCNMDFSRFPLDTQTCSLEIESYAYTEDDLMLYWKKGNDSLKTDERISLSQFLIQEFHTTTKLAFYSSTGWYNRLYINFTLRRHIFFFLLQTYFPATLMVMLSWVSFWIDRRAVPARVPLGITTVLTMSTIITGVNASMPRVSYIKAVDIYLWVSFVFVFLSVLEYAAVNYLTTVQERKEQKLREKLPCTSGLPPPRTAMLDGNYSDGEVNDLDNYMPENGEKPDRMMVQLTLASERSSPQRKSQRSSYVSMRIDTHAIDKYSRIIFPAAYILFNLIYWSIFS

| Compound | EC50 [µM] |
| --- | --- |
| C[C@@H](CCN)C(=O)O | 65 |
| NC[C@H](O)CC(=O)O | 19.1 |
| NC[C@@H](O)CC(=O)O | 44.8 |

These molecules were tested against T1, Gamma-aminobutyric acid receptor subunit rho-1 (assay: Antagonist activity at human recombinant GABAc rho1 receptor expressed in Xenopus laevis oocytes at -60mV by two-electrode voltage clamp method).
Format: functional, cell-based, Oocyte

| Compound | IC50 [µM] |
| --- | --- |
| CP(=O)(O)C[C@@H](O)CN | 17.1 |
| CP(=O)(O)C[C@H](O)CN | 5.4 |
| C[C@H](CCN)C(=O)O | 16 |
